According to patent US20080214576A1, “Topoisomerase Inhibitors and Prodrugs” (Threshold Pharmaceuticals, Inc., priority 2004, published 2008):
Like-named read-outs stand apart in the source and are kept apart here.

Tested on: H460 cells
Test: Antiproliferation assay (multi-well Alamar Blue based)
Format: cell-based, human
Procedure: To determine the effect of the compounds of the invention on cell proliferation, the antiproliferative activity of these compounds was tested in a multi-well Alamar Blue based assay (at 2 h and 3 days). Cell growth in the presence and absence of the test compound was compared, as measured by a fluorescence plate reader at excitation 550 nm and emission 590 nm (see Biosource International Inc., Tech Application Notes, Use of Alamar Blue in the measurement of Cell Viability and Toxicity, Determining IC50). […] After 24 hours, these plates were divided into 3 groups—Control group, 2 h treatment group, and 3 day treatment group. A test compound was added to each plate in the treatment groups (2 h and 3 day) at various concentration (in 50 μl of medium). In the 2 h treatment group, after 2 h the cells were rinsed to remove the test compound and incubated for 3 days, followed by staining with AlamarBlue. The cells in the 3 day treatment group were incubated for 3 days, followed by staining with AlamarBlue. In the Control group, AlamarBlue was added to the plate at (i) day 0 and (ii) day 3 and measured to establish the control reading.

SMILES | GI50 (assay time period not stated) | GI90 (assay time period not stated) | GI90 (3 day treatment, AlamarBlue, GI90 also referred to as IC90) [µM] | GI50 (Homo sapiens, NCI-H460, 72 h, 3 day treatment, AlamarBlue, GI50 also referred to as IC50, read-out: GI50) [µM]
COc1cc2c(cc1OC)-c1nc3cc4c(cc3n1C(CCCN(C)C)N2)OCO4 (stereo not shown) [Compound 7] | not determinable | not determinable | – | –
COc1cc2c(cc1OC)n(CCN(C)C)c(=O)n1c3cc4c(cc3nc21)OCO4 [Compound 14] | – | – | 1 | 0.6
